pIC50: −log10 of the molar value. Calls of active or inactive are those of the source. No cut-off for these calls is given here.

For one assay, the system named is Fusarium graminearum. The assay can be described thus: Antifungal activity against Fusarium graminearum. The format is functional.
Another assay concerns Paecilomyces lilacinus. As to the kind of experiment: Antifungal activity against Paecilomyces lilacinus. The format is functional. The conditions noted are these: Purpureocillium lilacinum.
The next assay deals with Staphylococcus aureus. As to the kind of experiment: Antibacterial activity against Staphylococcus aureus. The format is functional.
The test system of another assay is Penicillium chrysogenum. The assay can be described thus: Antifungal activity against Penicillium chrysogenum. The format is functional.
The target in assay [1] is Neuronal acetylcholine receptor; alpha3/beta4 (Rattus norvegicus) (UniProt P04757+P12392). The assay can be described thus: Displacement of [3H]epibatidine from alpha3beta4* nAChR in Sprague-Dawley rat forebrain membranes. The note with it: Membrane. Background: Loss of bound radioactivity is the signal in a displacement assay; it reports binding, not function.
Another assay deals with Bacillus subtilis. As to the kind of experiment: Antibacterial activity against Bacillus subtilis. The format is functional.
For another assay, the system named is Aspergillus niger. The assay can be described thus: Antifungal activity against Aspergillus niger. It is filed as functional.
For another assay, the system named is Tetronarce californica. As to the kind of experiment: Displacement of [3H]epibatidine from (alpha1)2beta1gammadelta nAChR in Torpedo californica electroplax membranes.
A further assay concerns Pseudomonas aeruginosa. As to the kind of experiment: Antibacterial activity against Pseudomonas aeruginosa. It is filed as functional.
The subject of another assay is Escherichia coli. As to the kind of experiment: Antibacterial activity against Escherichia coli. It is filed as functional.
The species named for the next assay is Sus scrofa. As to the kind of experiment: Displacement of [3H]MLA from alpha7* nAChR in pig adrenal membranes. It is filed as cell membranes.
The species named for another assay is Homo sapiens. As to the kind of experiment: Inhibition of TNFalpha-induced NFkappaB activation in HEK293 cells at 40 uM after 6 hrs by luciferase reporter gene assay relative to control. It is filed as cell-based. A general note: Reporter assays use an easily measured gene product as a stand-in for the process of interest.
In the next assay the test system is A2780. As to the kind of experiment: Cytotoxicity against human A2780 cells assessed as reduction in cell viability at 20 ug/ml after 72 hrs by CyQuant dye based assay. It is filed as functional.
Assay [2] concerns the target Neuronal acetylcholine receptor; alpha4/beta2 (Rattus norvegicus) (UniProt P09483+P12390). As to the kind of experiment: Displacement of [3H]epibatidine from alpha4beta2* nAChR in Sprague-Dawley rat forebrain membranes. The conditions noted are these: Membrane.
Assay [3] can be described thus: Inhibition of TNFalpha-induced NFkappaB activation in HEK293 cells after 6 hrs by luciferase reporter gene assay. The conditions noted are these: Homo sapiens, HEK293, 6 h. It is filed as cell-based.

Take `COc1cc([C@H]2Oc3c(OC)cc(/C=C/C(=O)NCCCCNC(N)=O)cc3[C@@H]2CO)ccc1O`: the outcome in the assay on Fusarium graminearum, in the assay with Paecilomyces lilacinus, with Staphylococcus aureus, in the assay with Penicillium chrysogenum, with Bacillus subtilis and in the assay on Aspergillus niger was inactive. Also, the outcome in the assay on Pseudomonas aeruginosa, in the assay with Escherichia coli and with A2780 was inactive. Further, the inhibition result (in assay [1]; with Tetronarce californica; in the assay listed under Sus scrofa; in the assay filed under Homo sapiens; in assay [2]) was “inactive” each time.
For the compound `COc1cc(/C=C/C(=O)NCCCCNC(N)=O)ccc1O`, the outcome in the assay on Fusarium graminearum, in the assay with Paecilomyces lilacinus, in the assay on Staphylococcus aureus, in the assay with Penicillium chrysogenum, with Bacillus subtilis and in the assay with Aspergillus niger was inactive. For the same compound, the outcome in the assay on Pseudomonas aeruginosa, with Escherichia coli and with A2780 was inactive. The compound also had a negative logarithm of the IC50 (pIC50) in assay [3] of 4.44. Also, the inhibition result (in assay [1]; with Tetronarce californica; in the assay filed under Sus scrofa; in assay [2]) was “inactive” in each case. The compound also came in with an inhibition in the assay filed under Homo sapiens of over 60%.

One may read the inhibition as the drop in the measured response relative to a control, in per cent. In general, pIC50 refers to the negative decadic logarithm of the IC50, by convention in mol/L. A high value points to a low IC50.

For the origin of these results see ChEMBL document CHEMBL4043237, “Heliotropiumides A and B, new phenolamides with N-carbamoyl putrescine moiety from Heliotropium foertherianum collected in Hawaii and their biological activities” (Bioorg Med Chem Lett, 2017).
